From US20100197599A1, “USE OF A PEPTIDE AS A THERAPEUTIC AGENT” (priority 2007, published 2010) come the findings set out here.

For one assay, the system named is HIV-1IIIB. Nature of the assay: HIV-1 antiviral assay in CEM-SS cells (MTS readout). Particulars: positive controls.
In another assay the test system is HCMV strain AD169. Description: HCMV plaque formation assay in MRC-5 cells. Particulars: for inhibition of HCMV plaque formation as compared to the virus control experiment: 10 micrograms per ml, 7-10 days.
Another assay has as its system Interferon-γ (IFN-γ). Nature of the assay: Th1/Th2 cytokine profiling assay, IFN-γ. Particulars: murine spleen cells, 10 micrograms per ml; for induction of the production of IFN-γ: Ovalbumin restimulation, 72 hours.
Another assay concerns Human A549 cells. Nature of the assay: Apoptosis prevention assay (C2 ceramide, Annexin-5). Particulars: 10 micrograms per ml pretreatment 30 min. In kind it is cell-based.
For assay [1], the system named is Tumor Necrosis Factor-α (TNF-α). Description: Th1/Th2 cytokine profiling assay, TNF-α. Particulars: murine spleen cells, 10 micrograms per ml; for change of the production of TNF-alpha: Ovalbumin restimulation, 72 hours.
Text: (§1) The Balb/c mice (originated in 1923, it is a popular strain and is used in many different research disciplines. Also classified as an inbred from the production of 20 or more successive brother-sister matings, the Balb/c mouse is albino and small in size) were immunized on Days 1, 15, and 29 with Ovalbumin (Ovalbumin is the main protein found in egg white, commonly used to stimulate an immunological reaction in test animals) in PBS (5 micrograms/injection). On day 50, spleens of the mice were harvested (3 weeks after last boost with Ovalbumin). […] Thereafter, additional Ovalbumin was added to the cells at 10 micrograms/ml for in vitro restimulation of the cells. 72 hours later, cell supernatants were harvested and assayed using the Becton Dickinson Mouse Th1/Th2 Cytokine CBA Kit. This kit can be used to measure Interleukin-2 (IL-2), Interleukin-4 (IL-4), Interleukin-5 (IL-5), Interferon-γ (IFN-γ), and Tumor Necrosis Factor-α (TNF-α) protein levels in a single sample.
Assay [2] relates to hepatitis B virus (HBV) ayw strain. Description: HBV assay in HepG2-2.2.15 cells (secreted HBV DNA, TaqMan PCR). In kind it is cell-based. Particulars: HepG2-2.2.15 liver cells, 10 micrograms per ml, six days.
Another assay relates to Interleukin-5 (IL-5). Nature of the assay: Th1/Th2 cytokine profiling assay, IL-5. The following applies: murine spleen cells, 10 micrograms per ml.
A further assay has as its system Interleukin-2 (IL-2). Description: Th1/Th2 cytokine profiling assay, IL-2. The following applies: murine spleen cells, 10 micrograms per ml.
Another assay deals with HUVEC. Description: Endothelial tube formation assay. Particulars: 10 micrograms per ml, 20 hours. It is filed as cell-based, human. The source says:
Positive control was vehicle only.

For assay [3], the system named is Primary Human endothelial cells (HUVEC). Description: Endothelial cell migration assay. In kind it is cell-based. The following applies: 10 micrograms per ml, 22 hours. On the procedure:
Thereafter, designated concentration of testing peptides—10 micrograms per ml—was added in duplicate wells.

The next assay concerns RAW 264.7 cells. Nature of the assay: Phagocytosis assay (Fluorescein-labeled Escherichia coli, flow cytometry). In kind it is cell-based, Mouse. Particulars: 10 micrograms per ml, Fluorescein-labeled E. coli. As for the experimental part:
RAW 264.7 (Mouse leukaemic monocyte macrophage cell line) cells were obtained from ATCC and grown in RPMI 1640 medium containing 10% FBS. […] After the cells were incubated for additional 60 min at 37° C. and allowed to ingest the Fluorescein-labeled Escherichia coli bacteria, cells were fixed with 1% paraformaldehyde. The samples were then analyzed by flow cytometry to determine the amount of phagocytosis as a function of brightness (the greater the phagocytic activity, the more fluorescence in the macrophage population). Data are reported as % positive and the mean fluorescence intensity (MFI) of positively stained cells.

Another assay relates to Interleukin-4 (IL-4). Nature of the assay: Th1/Th2 cytokine profiling assay, IL-4. The following applies: murine spleen cells, 10 micrograms per ml.
The mark [4] stands for this setting: Ovalbumin restimulation, 72 hours.

No end group written: not given here.

Text for Interferon-γ (IFN-γ): as §1
Text for Interleukin-2 (IL-2): (§2) The Balb/c mice (originated in 1923, it is a popular strain and is used in many different research disciplines. Also classified as an inbred from the production of 20 or more successive brother-sister matings, the Balb/c mouse is albino and small in size) were immunized on Days 1, 15, and 29 with Ovalbumin (Ovalbumin is the main protein found in egg white, commonly used to stimulate an immunological reaction in test animals) in PBS (5 micrograms/injection). On day 50, spleens of the mice were harvested (3 weeks after last boost with Ovalbumin). […] Thereafter, additional Ovalbumin was added to the cells at 10 micrograms/ml for in vitro restimulation of the cells. 72 hours later, cell supernatants were harvested and assayed using the Becton Dickinson Mouse Th1/Th2 Cytokine CBA Kit. This kit can be used to measure Interleukin-2 (IL-2), Interleukin-4 (IL-4), Interleukin-5 (IL-5), Interferon-γ (IFN-γ), and Tumor Necrosis Factor-α (TNF-α) protein levels in a single sample. The kit performance has been optimized for analysis of physiologically relevant concentrations (μg/ml levels) of specific cytokine proteins in tissue culture supernatants and serum samples.
Text for Interleukin-4 (IL-4): as §2
Text for Interleukin-5 (IL-5): as §2

In the case of `CC(C)(C)NC(=O)[C@@H]1CN(Cc2cccnc2)CCN1C[C@@H](O)C[C@@H](Cc1ccccc1)C(=O)N[C@H]1c2ccccc2C[C@H]1O` [indinavir], in the assay with HIV-1IIIB, the “antiviral activity of positive control compounds” value was “expected levels of antiviral activity”.

For `Nc1nc(O)c2ncn(COC(CO)CO)c2n1` [Ganciclovir, reference compound], the “antiviral activity of positive control compound” value in the assay with HCMV strain AD169 (HCMV AD169, positive control) was “expected levels of antiviral activity”.

For the molecule “Met-Ala-Pro-Arg-Gly-Phe-Ser-Cys-Leu-Leu-Leu-Leu-Thr-Ser-Glu-Ile-Asp-Leu-Pro-Val-Lys-Arg-Arg-Ala-OH (MAPRGFSCLLLLTSEIDLPVKRRA-OH) [peptide 1]”, in the assay on Interferon-γ (IFN-γ), the “IFNγ spleen cells; TH1 response (% of control)” value is 122.3 % of control and the “induction of the production of IFN-γ” value stood at 22.3%. Moreover, the “reduction of the ceramide-induced apoptosis on human lung cells” value in the assay with Human A549 cells is recorded as 10.7%. In addition, in assay [1], the “TNF-a spleen cells; TH1 response (% of control)” value is 104.2 % of control and the “change of the production of TNF-alpha” value is given as “did not significantly change”. In addition, the “inhibition of HBV replication as compared to the virus control infection” value in assay [2] turned out to be 3.9%. For the same molecule, in the assay on HCMV strain AD169, the “inhibition of HCMV plaque formation as compared to the virus control experiment” value worked out at 3.2%. The “IL-5 spleen cells; TH2 response (% of control)” value in the assay on Interleukin-5 (IL-5) is on record as 63.5 % of control. Also, the “decrease of the production of IL-5” value in the assay with Interleukin-5 (IL-5) (setting [4]) is reported as 36.5%. For the same molecule, the “IL-2 spleen cells (% of control)” value with Interleukin-2 (IL-2) is recorded as 50.6 % of control. Besides, the “decrease of the production of IL-2” value in the assay with Interleukin-2 (IL-2) (setting [4]) amounted to 49.4%. Besides, the “induction of the tube formation of human endothelial cells” value in the assay on HUVEC was 23%. In [3], the “inhibition of the migration of human endothelial cells” value is 3%. Besides, the “induction of phagocytosis as compared to the control experiment” value with RAW 264.7 cells is reported as 94.3%. Moreover, the “IL-4 spleen cells; TH2 response (% of control)” value in the assay with Interleukin-4 (IL-4) is 75.1 % of control. Moreover, the “change of the production of IL-4” value in the assay with Interleukin-4 (IL-4) (setting [4]) is given as “did not significantly change”.

Regarding `Cc1cn([C@H]2C[C@H](N=[N+]=[N-])[C@@H](CO)O2)c(=O)[nH]c1=O` [AZT], the “antiviral activity of positive control compounds” value with HIV-1IIIB is “expected levels of antiviral activity”.

Take “Tyr-Gly-Gly-Phe-Leu-Arg-Lys-Tyr-Pro-Lys-OH (YGGFLRKYPK-OH) [peptide 2]”: in the assay on Interferon-γ (IFN-γ), the “IFNγ spleen cells; TH1 response (% of control)” value is 130.3 % of control and the “induction of the production of IFN-γ” value amounted to 30.3%. Besides, the “reduction of the ceramide-induced apoptosis on human lung cells” value in the assay on Human A549 cells stood at 17.9%. In assay [1], the “TNF-a spleen cells; TH1 response (% of control)” value is 101.0 % of control and the “change of the production of TNF-alpha” value is recorded as “did not significantly change”. The “inhibition of HBV replication as compared to the virus control infection” value in assay [2] was “no effect”. Besides, in the assay with HCMV strain AD169, the “inhibition of HCMV plaque formation as compared to the virus control experiment” value is listed as 6.9%. Moreover, the “IL-5 spleen cells; TH2 response (% of control)” value in the assay with Interleukin-5 (IL-5) was 67.5 % of control. For the same molecule, in the assay on Interleukin-5 (IL-5) (setting [4]), the “change of the production of IL-5” value is “did not significantly change”. In addition, the “IL-2 spleen cells (% of control)” value in the assay with Interleukin-2 (IL-2) is on record as 141.5 % of control. The “induction of the production of IL-2” value with Interleukin-2 (IL-2) (setting [4]) is 41.5%. In the assay on HUVEC, the “inhibition of the tube formation of human endothelial cells” value was 5%. The “induction of the migration of human endothelial cells” value in [3] is on record as 11%. Further, the “induction of phagocytosis as compared to the control experiment” value in the assay with RAW 264.7 cells was 54.3%. The “IL-4 spleen cells; TH2 response (% of control)” value with Interleukin-4 (IL-4) is on record as 170.6 % of control. Moreover, the “induction of the production of IL-4” value in the assay on Interleukin-4 (IL-4) (setting [4]) was 70.6%.
